Structures can show the parent of a compound that is named as a salt. Where two headings read alike, the source gives them in different places. Where a SMILES comes first, the peptide text is derived from it. [ ]: non-standard residue; d: D form. αMeP = C[C@@]1(C(=O)O)CCCN1
What was measured:
[1] = target: T1, SARS-CoV-2 PLpro (nsp3 1564–1878) (Severe acute respiratory syndrome coronavirus 2, UniProt P0DTD1); assay: biochemical; design: FRET-quenched peptide (Pro3) cleavage by PLpro, 10 min pre-incubation, slope over 20 min, normalised to no-compound control; details: high concentration screen
[2] = target: T1, SARS-CoV-2 PLpro (nsp3 1564–1878); assay: biochemical; design: FRET-quenched peptide (Pro3) cleavage by PLpro, 10 min pre-incubation, slope over 20 min, normalised to no-compound control; details: low concentration screen
[3] = Well no.=1379, read-out: % of control remaining
[4] = Well no.=6574, read-out: % of control remaining
[5] = Well no.=1435, read-out: % of control remaining
[6] = Well no.=2004, read-out: % of control remaining
[7] = Well no.=6419, read-out: % of control remaining
[8] = Well no.=1525, read-out: % of control remaining
[9] = Well no.=8656, read-out: % of control remaining
[10] = Well no.=2072, read-out: % of control remaining
[11] = Well no.=3205, read-out: % of control remaining
[12] = Well no.=4617, read-out: % of control remaining
[13] = Well no.=8252, read-out: % of control remaining
[14] = Well no.=4496, read-out: % of control remaining
[15] = Well no.=4260, read-out: % of control remaining
[16] = Well no.=6369, read-out: % of control remaining
[17] = Well no.=1326, read-out: % of control remaining
[18] = Well no.=1376, read-out: % of control remaining
[19] = Well no.=2296, read-out: % of control remaining
[20] = Well no.=6373, read-out: % of control remaining
[21] = Well no.=6438, read-out: % of control remaining
[22] = Well no.=8058, read-out: % of control remaining
[23] = Well no.=4942, read-out: % of control remaining
[24] = Well no.=6375, read-out: % of control remaining
[25] = Well no.=1187, read-out: % of control remaining
[26] = Well no.=4815, read-out: % of control remaining
[27] = Well no.=4762, read-out: % of control remaining
[28] = Well no.=8493, read-out: % of control remaining
[29] = Well no.=1516, read-out: % of control remaining
[30] = Well no.=2006, read-out: % of control remaining
[31] = Well no.=6715, read-out: % of control remaining
[32] = Well no.=1333, read-out: % of control remaining
[33] = Well no.=7663, read-out: % of control remaining
[34] = Well no.=4979, read-out: % of control remaining
[35] = Well no.=1197, read-out: % of control remaining
[36] = read-out: % of control remaining, Well no.=4642
[37] = Well no.=1985, read-out: % of control remaining
[38] = Well no.=8554, read-out: % of control remaining

COc1cc2c(cc1OC)-c1c/c(=N\c3c(C)cc(C)cc3C)n(C)c(=O)n1CC2 [Trequinsin hydrochloride]
remaining activity at 3.75 µM [1, 3]: 97.1%
remaining activity at 1.25 µM [2, 3]: 98.6%

CC1(C)O[C@@H]2C[C@H]3[C@@H]4CCC5=CC(=O)C=C[C@]5(C)[C@@]4(F)[C@@H](O)C[C@]3(C)[C@]2(C(=O)CO)O1 [Triamcinolone (acetonide)]
remaining activity at 3.75 µM [1, 4]: 108%
remaining activity at 1.25 µM [2, 4]: 105%

C[C@]12C=CC(=O)C=C1CC[C@H]1[C@@H]3C[C@@H](O)[C@](O)(C(=O)CO)[C@@]3(C)C[C@H](O)[C@@]12F [Triamcinolone]
remaining activity at 3.75 µM [1, 5]: 100%
remaining activity at 3.75 µM [1, 6]: 106%
remaining activity at 3.75 µM [1, 7]: 96.2%
remaining activity at 1.25 µM [2, 5]: 98.1%
remaining activity at 1.25 µM [2, 6]: 108%
remaining activity at 1.25 µM [2, 7]: 94.8%

Nc1nc(N)c2nc(-c3ccccc3)c(N)nc2n1 [Triamterene]
remaining activity at 3.75 µM [1, 8]: 91.1%
remaining activity at 1.25 µM [2, 8]: 94%

NS(=O)(=O)c1cc2c(cc1Cl)NC(C(Cl)Cl)NS2(=O)=O (stereo not drawn) [Trichlormethiazide]
remaining activity at 3.75 µM [1, 9]: 99.7%
remaining activity at 1.25 µM [2, 9]: 102%

NS(=O)(=O)c1cc2c(cc1Cl)NC(C(Cl)Cl)NS2(=O)=O (stereo not drawn) [Trichloromethiazide]
remaining activity at 3.75 µM [1, 10]: 100%
remaining activity at 1.25 µM [2, 10]: 101%

CC(C)[C@H]1C(=O)O[C@@H]2CCN3CC=C(COC(=O)[C@](C)(O)[C@]1(C)O)[C@H]23 [Trichodesmine]
remaining activity at 3.75 µM [1, 11]: 106%
remaining activity at 1.25 µM [2, 11]: 105%

CC(/C=C/C(=O)NO)=C\[C@@H](C)C(=O)c1ccc(N(C)C)cc1 [Trichostatin A (TSA)]
remaining activity at 3.75 µM [1, 12]: 107%
remaining activity at 1.25 µM [2, 12]: 106%

Oc1cc(Cl)ccc1Oc1ccc(Cl)cc1Cl [Triclosan]
remaining activity at 3.75 µM [1, 13]: 98.2%
remaining activity at 1.25 µM [2, 13]: 101%

CCCCCCCCCCCCCCCCCCCCCCC(=O)O [Tricosanoic acid]
remaining activity at 3.75 µM [1, 14]: 92.7%
remaining activity at 1.25 µM [2, 14]: 91.3%

CCCCCCCCCCCCC(=O)O [Tridecanoic acid]
remaining activity at 3.75 µM [1, 15]: 98%
remaining activity at 1.25 µM [2, 15]: 106%

CN1CCN(CCCN2c3ccccc3Sc3ccc(C(F)(F)F)cc32)CC1 [Trifluoperazine (dihydrochloride)]
remaining activity at 3.75 µM [1, 16]: 105%
remaining activity at 1.25 µM [2, 16]: 105%

CN1CCN(CCCN2c3ccccc3Sc3ccc(C(F)(F)F)cc32)CC1 [Trifluoperazine dihydrochloride]
remaining activity at 3.75 µM [1, 17]: 100%
remaining activity at 1.25 µM [2, 17]: 101%

O=C(CCCN1CCC(O)(c2cccc(C(F)(F)F)c2)CC1)c1ccc(F)cc1 [Trifluperidol hydrochloride]
remaining activity at 3.75 µM [1, 18]: 94.4%
remaining activity at 1.25 µM [2, 18]: 96.4%

O=C(CCCN1CCC(O)(c2cccc(C(F)(F)F)c2)CC1)c1ccc(F)cc1 [Trifluperidol]
remaining activity at 3.75 µM [1, 19]: 96.6%
remaining activity at 1.25 µM [2, 19]: 95.3%

CN(C)CCCN1c2ccccc2Sc2ccc(C(F)(F)F)cc21 [Triflupromazine (hydrochloride)]
remaining activity at 3.75 µM [1, 20]: 103%
remaining activity at 1.25 µM [2, 20]: 105%

O=c1[nH]c(=O)n([C@H]2C[C@H](O)[C@@H](CO)O2)cc1C(F)(F)F [Trifluridine]
remaining activity at 3.75 µM [1, 21]: 98.3%
remaining activity at 3.75 µM [1, 22]: 86.7%
remaining activity at 1.25 µM [2, 21]: 98%
remaining activity at 1.25 µM [2, 22]: 85.9%

CC(=O)Oc1cc(C(F)(F)F)ccc1C(=O)O [Triflusal]
remaining activity at 3.75 µM [1, 23]: 96.4%
remaining activity at 1.25 µM [2, 23]: 98.7%

OC(CCN1CCCCC1)(c1ccccc1)C1CCCCC1 (stereo not drawn) [Trihexyphenidyl (hydrochloride)]
remaining activity at 3.75 µM [1, 24]: 105%
remaining activity at 1.25 µM [2, 24]: 105%

OC(CCN1CCCCC1)(c1ccccc1)C1CCCCC1 (stereo not drawn) [Trihexyphenidyl hydrochloride]
remaining activity at 3.75 µM [1, 25]: 92%
remaining activity at 1.25 µM [2, 25]: 92.8%

C[C@]12CC[C@H]3[C@@H](CC[C@@]45O[C@@H]4C(O)=C(C#N)C[C@]35C)[C@@H]1CC[C@@H]2O [Trilostane]
remaining activity at 3.75 µM [1, 26]: 107%
remaining activity at 1.25 µM [2, 26]: 101%

CCC(COC(=O)c1cc(OC)c(OC)c(OC)c1)(c1ccccc1)N(C)C (stereo not drawn) [Trimebutine]
remaining activity at 3.75 µM [1, 27]: 105%
remaining activity at 1.25 µM [2, 27]: 103%

COc1cc(C(=O)NCc2ccc(OCCN(C)C)cc2)cc(OC)c1OC [Trimethobenzamide hydrochloride]
remaining activity at 3.75 µM [1, 28]: 91.3%
remaining activity at 1.25 µM [2, 28]: 90.1%

COc1cc(Cc2cnc(N)nc2N)cc(OC)c1OC [Trimethoprim]
remaining activity at 3.75 µM [1, 29]: 94.5%
remaining activity at 3.75 µM [1, 30]: 97.8%
remaining activity at 1.25 µM [2, 29]: 96%
remaining activity at 1.25 µM [2, 30]: 99.3%

CC(CN(C)C)CN1c2ccccc2CCc2ccccc21 (stereo not drawn) [Trimipramine (maleate)]
remaining activity at 3.75 µM [1, 31]: 100%
remaining activity at 1.25 µM [2, 31]: 106%

CC(CN(C)C)CN1c2ccccc2CCc2ccccc21 (stereo not drawn) [Trimipramine maleate]
remaining activity at 3.75 µM [1, 32]: 102%
remaining activity at 1.25 µM [2, 32]: 104%

CN(C)CCN(Cc1ccccc1)c1ccccn1 [Tripelennamine (hydrochloride)]
remaining activity at 3.75 µM [1, 33]: 98.8%
remaining activity at 1.25 µM [2, 33]: 99.1%

CN(C)CCN(Cc1ccccc1)c1ccccn1 [Tripelennamine HCl]
remaining activity at 3.75 µM [1, 34]: 93%
remaining activity at 1.25 µM [2, 34]: 94.3%

Cc1ccc(/C(=C\CN2CCCC2)c2ccccn2)cc1 [Triprolidine hydrochloride]
remaining activity at 3.75 µM [1, 35]: 90.1%
remaining activity at 1.25 µM [2, 35]: 87.7%

CC(C)[C@]12O[C@H]1[C@@H]1O[C@]13[C@]1(O[C@H]1C[C@H]1C4=C(CC[C@@]13C)C(=O)OC4)[C@@H]2O [Triptolide]
remaining activity at 3.75 µM [1, 36]: 98.1%
remaining activity at 1.25 µM [2, 36]: 99.8%

CC(C)C[C@H](NC(=O)[C@@H](Cc1c[nH]c2ccccc12)NC(=O)[C@H](Cc1ccc(O)cc1)NC(=O)[C@H](CO)NC(=O)[C@H](Cc1c[nH]c2ccccc12)NC(=O)[C@H](Cc1c[nH]cn1)NC(=O)[C@@H]1CCC(=O)N1)C(=O)N[C@@H](CCCNC(=N)N)C(=O)N1CCC[C@H]1C(=O)NCC(N)=O [Triptorelin]
remaining activity at 3.75 µM [1, 37]: 101%
remaining activity at 1.25 µM [2, 37]: 100%

C[C@@]1(C(=O)N[C@@H](CCC(=O)O)C(=O)O)CCCN1C(=O)CN [Trofinetide] (H-Gly-[αMeP]-Glu-OH)
remaining activity at 3.75 µM [1, 38]: 98.6%
remaining activity at 1.25 µM [2, 38]: 108%
